The source of these data is ChEMBL document CHEMBL1139814, “Conformationally restricted homotryptamines. Part 4: Heterocyclic and naphthyl analogs of a potent selective serotonin reuptake inhibitor” (Bioorg Med Chem Lett, 2007).

Experiment [1] addresses Sodium-dependent serotonin transporter (Homo sapiens, UniProt P31645). The experiment in a line: Inhibition of human SERT.
For experiment [2], the target named is T1, Sodium-dependent noradrenaline transporter (Homo sapiens, UniProt P23975). Briefly: Inhibition of NET at 1 uM.
For experiment [3], the target named is T2, Sodium-dependent dopamine transporter (Homo sapiens, UniProt Q01959). The experiment in a line: Inhibition of DAT.
For experiment [4], the target named is T1, Sodium-dependent noradrenaline transporter. The experiment in a line: Inhibition of NET.
Experiment [5] concerns the target T2, Sodium-dependent dopamine transporter. Briefly: Inhibition of DAT at 1 uM.

Molecules are shown by their SMILES.

T1 sequence (P23975 whole entry): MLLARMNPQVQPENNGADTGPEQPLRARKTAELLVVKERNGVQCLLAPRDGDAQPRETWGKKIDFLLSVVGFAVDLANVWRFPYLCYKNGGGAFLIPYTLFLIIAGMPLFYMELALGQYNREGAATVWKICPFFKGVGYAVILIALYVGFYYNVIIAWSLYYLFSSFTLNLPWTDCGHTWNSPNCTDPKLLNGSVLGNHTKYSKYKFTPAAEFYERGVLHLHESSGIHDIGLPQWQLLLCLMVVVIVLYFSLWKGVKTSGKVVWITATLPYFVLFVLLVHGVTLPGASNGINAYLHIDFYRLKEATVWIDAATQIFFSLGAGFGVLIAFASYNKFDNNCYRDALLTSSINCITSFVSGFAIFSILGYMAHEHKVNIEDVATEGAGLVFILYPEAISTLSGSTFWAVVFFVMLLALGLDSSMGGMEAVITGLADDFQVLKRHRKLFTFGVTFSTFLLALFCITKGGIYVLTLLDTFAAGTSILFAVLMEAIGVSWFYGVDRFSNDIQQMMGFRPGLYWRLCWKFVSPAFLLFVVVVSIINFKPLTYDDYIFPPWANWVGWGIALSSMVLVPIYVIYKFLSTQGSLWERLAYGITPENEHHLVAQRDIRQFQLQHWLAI
Chain of Sodium-dependent serotonin transporter (P31645 whole entry): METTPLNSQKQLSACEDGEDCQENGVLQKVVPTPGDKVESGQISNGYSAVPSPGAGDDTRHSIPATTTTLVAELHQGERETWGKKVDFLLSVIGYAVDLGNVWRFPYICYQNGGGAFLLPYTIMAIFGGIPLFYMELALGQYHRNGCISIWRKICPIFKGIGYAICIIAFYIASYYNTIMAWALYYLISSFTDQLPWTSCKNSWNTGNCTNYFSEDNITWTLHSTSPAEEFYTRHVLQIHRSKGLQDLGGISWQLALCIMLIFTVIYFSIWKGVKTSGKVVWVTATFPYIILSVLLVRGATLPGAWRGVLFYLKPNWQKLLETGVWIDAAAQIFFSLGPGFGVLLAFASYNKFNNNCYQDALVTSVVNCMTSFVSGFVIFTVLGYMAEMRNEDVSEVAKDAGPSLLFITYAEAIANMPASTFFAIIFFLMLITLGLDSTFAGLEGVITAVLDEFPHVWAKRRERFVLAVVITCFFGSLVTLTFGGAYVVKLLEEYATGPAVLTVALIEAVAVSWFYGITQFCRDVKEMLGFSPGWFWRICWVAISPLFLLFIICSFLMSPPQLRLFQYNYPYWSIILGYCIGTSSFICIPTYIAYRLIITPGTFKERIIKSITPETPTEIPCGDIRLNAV
T2 sequence (Q01959 whole entry): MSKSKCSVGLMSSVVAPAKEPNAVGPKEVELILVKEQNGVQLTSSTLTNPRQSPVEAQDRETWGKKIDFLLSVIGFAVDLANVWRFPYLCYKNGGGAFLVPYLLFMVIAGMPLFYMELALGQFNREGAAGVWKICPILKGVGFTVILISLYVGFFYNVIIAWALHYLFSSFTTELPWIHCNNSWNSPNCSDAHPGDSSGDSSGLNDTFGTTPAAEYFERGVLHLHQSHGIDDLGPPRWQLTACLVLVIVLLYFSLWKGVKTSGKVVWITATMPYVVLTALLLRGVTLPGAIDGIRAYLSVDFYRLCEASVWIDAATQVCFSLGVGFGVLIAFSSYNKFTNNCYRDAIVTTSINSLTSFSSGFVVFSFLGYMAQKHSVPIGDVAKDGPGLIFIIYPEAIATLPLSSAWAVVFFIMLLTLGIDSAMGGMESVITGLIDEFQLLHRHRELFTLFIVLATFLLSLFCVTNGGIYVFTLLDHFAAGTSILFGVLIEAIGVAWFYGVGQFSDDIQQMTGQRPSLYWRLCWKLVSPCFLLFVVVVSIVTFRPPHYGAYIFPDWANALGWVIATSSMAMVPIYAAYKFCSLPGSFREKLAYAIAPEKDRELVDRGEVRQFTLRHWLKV

With `CN(C)C[C@H]1C[C@@H]1c1c[nH]c2ccc(C#N)cc12`, the IC50 in experiment [1] is 0.00048 µM.

In turn, `CNCC1CC1c1cccc2cc(C#N)ccc12` (stereo unspecified) returned an IC50 in experiment [1] of 0.017 µM. This IC50 lies about 35-fold higher than the previous one.

In experiment [1], `CN(C)CC1CC1c1cnc2ccccc2c1` (stereo unspecified) showed a half-inhibitory concentration (IC50) of 0.13 µM.

In experiment [1], `CCNCC1CC1c1cccc2cc(C#N)ccc12` (stereo unspecified) came in with an IC50 of 0.037 µM.

In turn, `CCN(CC)CC1CC1c1cccc2cc(C#N)ccc12` (stereo unspecified) registered an IC50 in experiment [1] of 0.067 µM. This IC50 lies about 1.8-fold higher than the previous one.

`CN(C)CC1CC1c1ccc2cc(C#N)ccc2c1` (stereo unspecified): the inhibition in experiment [2] came to 69%; in experiment [5], 41%. Also, the IC50 in experiment [3] is 1.1 µM; in experiment [4], 0.56 µM; in experiment [1], 0.013 µM.

The compound `CN(Cc1ccccc1)CC1CC1c1cccc2cc(C#N)ccc12` (stereo unspecified) yielded an IC50 in experiment [1] of 0.016 µM.

`CN(C)CC1CC1c1cccc2c(C#N)cccc12` (stereo unspecified): the inhibition in experiment [2] was 25%; in experiment [5], 9.5%. The IC50 worked out at 12 µM in experiment [3], 39 µM in experiment [4] and 0.048 µM in experiment [1].

`CNCC1CC1c1ccc2ccccc2c1` (stereo unspecified) returned an IC50 in experiment [1] of 0.052 µM.

Turning to `CCN(C)CC1CC1c1ccc2ccccc2c1` (stereo unspecified), 0.31 µM corresponded to half-maximal inhibition in experiment [1] (IC50). This IC50 lies about 6-fold higher than the previous one.

With `CCN(CC)CC1CC1c1ccc2ccccc2c1` (stereo unspecified), half-maximal inhibition in experiment [1] (IC50) required 0.55 µM.

For the compound `CCN(C)CC1CC1c1cccc2ccccc12` (stereo unspecified), inhibition in experiment [1] was half-maximal at 0.058 µM (IC50).

In turn, `N#Cc1ccc2c(C3CC3CN3CCCC3)cccc2c1` (stereo unspecified) yielded an IC50 in experiment [1] of 0.051 µM.

Regarding `CCN(CC)CC1CC1c1cccc2ccccc12` (stereo unspecified), inhibition in experiment [1] was half-maximal at 0.12 µM (IC50).

`CNCC1CC1c1cccc2ccccc12` (stereo unspecified) showed an IC50 in experiment [1] of 0.089 µM.

Turning to `CN(C)CC1CC1c1cccc2cc(C#N)ccc12` (stereo unspecified), the inhibition was determined as 20% in experiment [2] and 16% in experiment [5]. Also, the IC50 in experiment [3] came to 8.7 µM; in experiment [4], 19 µM; in experiment [1] it was 0.0041 µM.

Turning to `CN(C)CC1CC1c1ccc2cc(C#N)c(C#N)cc2c1` (stereo unspecified), the inhibition in experiment [2] turned out to be 82%; in experiment [5], 80%. Moreover, in experiment [1], the IC50 amounted to 0.0059 µM.

In experiment [1], `CN(C)CC1CC1c1cncc2ccccc12` (stereo unspecified) yielded an IC50 of more than 1 µM.

With `CN(C)CC1CC1c1c[nH]c2ccc(C#N)cc12` (racemic), the IC50 in experiment [1] was 0.0011 µM.

For the compound `CN(C)C[C@H]1C[C@@H]1c1c[nH]c2ccc(F)cc12` (racemic), the IC50 in experiment [1] is 0.0041 µM.

For the compound `CN(C)CC1CC1c1ccc2ccc(C#N)cc2c1` (racemic), the figures for the inhibition in experiment [2] and in experiment [5] were 68% and 83%, respectively. The IC50 in experiment [3] came to 0.26 µM; in experiment [4], 0.71 µM; in experiment [1] it was 0.083 µM.

`CN(C)C[C@H]1C[C@@H]1c1c[nH]c2ccccc12` (racemic) gave an IC50 in experiment [1] of 0.099 µM.

Compound `CN(C)CC1CC1c1c[nH]c2ncccc12` (racemic) returned an IC50 in experiment [1] of 0.41 µM.

Regarding `CN(C)CC1CC1c1n[nH]c2ccc(C#N)cc12` (racemic), the results for the inhibition in experiment [2] and in experiment [5] were -4.9% and 0%, respectively. Further, the IC50 in experiment [3] is 44 µM; in experiment [4], more than 100 µM; in experiment [1], 0.071 µM.

Turning to `CN(C)CC1CC1c1cnc2ccccn12` (racemic), the IC50 in experiment [1] was more than 1 µM.

In the case of `CN(C)CC1CC1c1ccc2ccccc2c1` (single isomer, unassigned; (+)) [listing 1 of 2 here], the IC50 in experiment [3] worked out at 2.4 µM; in experiment [4], 8.7 µM; in experiment [1] it was 0.0086 µM.

On to `CN(C)CC1CC1c1cccc2ccccc12` (single isomer, unassigned; (+)) [listing 1 of 2 here], for which the results for the IC50 in experiment [3], in experiment [4] and in experiment [1] were 33 µM, 68 µM and 0.018 µM, respectively.

For the compound `CN(C)CC1CC1c1ccc2ccccc2c1` (single isomer, unassigned; (+)) [listing 2 of 2 here], the inhibition came out at 18% in experiment [2] and 31% in experiment [5].

`CN(C)CC1CC1c1cccc2ccccc12` (single isomer, unassigned; (+)) [listing 2 of 2 here]: the inhibition in experiment [2] stood at 2.3%; in experiment [5], 12%.

`CN(C)CC1CC1c1ccc2ccccc2c1` (single isomer, unassigned; (-)) displayed an IC50 in experiment [1] of 0.14 µM.

Compound `CN(C)CC1CC1c1cccc2ccccc12` (single isomer, unassigned; (-)) had an IC50 in experiment [1] of 0.17 µM. This IC50 and that of the compound before are within 1.5-fold of each other.

Compound `CN(C)CC1CC1c1csc2ccccc12` (stereo in doubt; 6) registered an IC50 in experiment [1] of 0.025 µM.

As to `CN(C)CC1CC1c1cccc2ccccc12` (stereo in doubt; 9b), in experiment [1], half-maximal inhibition (IC50) was put at 0.015 µM.

Compound `CN(C)CC1CC1c1ccc2ccccc2c1` (stereo in doubt; 10b) returned an IC50 in experiment [1] of 0.0086 µM.

In turn, `CN(C)CC1CC1c1csc2ccccc12` (stereo in doubt; (+)-6) [listing 1 of 2 here] showed an IC50 in experiment [1] of 0.055 µM. Compared with the last compound, the IC50 is about 6.4-fold higher.

As for `CN(C)CC1CC1c1csc2ccccc12` (stereo in doubt; (+)-6) [listing 2 of 2 here], the inhibition was determined as 13% in experiment [2] and 24% in experiment [5].

In experiment [1], `CN(C)CC1CC1c1csc2ccccc12` (stereo in doubt; (-)-6) gave an IC50 of 0.15 µM.

The term IC50 denotes the concentration that inhibits the measured activity by half. In general, inhibition refers to the change of the read-out against control, counted positive when it falls.
